Assays:
[1] = test system: Caco-2 clone TC-7 cells; assay: Apical uptake of micellar vitamin D forms by Caco-2 cell monolayers; assay type: in vitro ADME, human; details: 1 h incubation, mixed micelles; for uptake rate by Caco-2 cells at high concentration: >5 µM apical, n = 6; for uptake rate by Caco-2 cells at low concentration: <1 µM apical, n = 3
Description: (§1) Caco-2 clone TC-7 cells were cultured as previously described. For each experiment, cells were seeded and grown on Millicell® hanging cell culture inserts (Millipore S.A.S., Molsheim, France) for 21 days to obtain confluent and highly differentiated cell monolayers. Twelve hours prior to each experiment, the medium in both the apical and basolateral chambers was replaced with serum-free complete medium. The apical uptake of vitamin D forms incorporated in mixed micelles was determined after a 1 h-incubation period in the presence or absence of inhibitors, as previously described. The % of vitamin D taken up was estimated as the quantity of vitamin D present in the harvested cells divided by the sum of the quantity of vitamin D remaining in the apical chamber and that present in the harvested cells. The efflux of vitamin D forms incorporated in mixed micelles was determined as previously described, with minor changes. Briefly, cells first received the vitamin D-rich micelles at the apical side for 4 h. They were then washed once with PBS and equilibrated in serum-free complete medium for 15 min. Cells were either harvested (control) or they received apical medium containing vitamin D-free mixed micelles for 1 h. The % of vitamin D effluxed back to the apical side was estimated as the quantity of vitamin D present in the apical chamber divided by the quantity of vitamin D present in the harvested cells at t0.
(§2) Vitamin D forms were extracted from 500 µL aqueous samples using the method previously described. The internal standard was retinyl acetate for D3 and ergocalciferol for both 25(OH)D3 and 1α(OH)D3. After lipid extraction with hexane, dried residues were dissolved in 200 µL of mobile phase (acetonitrile/methanol/water, 60/38/2, v/v/v). A volume of 160 µL was used for HPLC analysis.
(§3) The HPLC system and method were set up according to previous studies. All molecules were identified by retention time compared with pure standards.

[2] = target: T1, NPC1L1 (Homo sapiens, UniProt Q9UHC9); assay: Uptake by Caco-2 cells with NPC1L1 inhibition by ezetimibe glucuronide; assay type: in vitro ADME; details: 10 µM ezetimibe glucuronide (NPC1L1 inhibitor), n = 3
T1 construct: endogenous in cells; host or cells: Caco-2 clone TC-7
T1 sequence (Q9UHC9 22-1359): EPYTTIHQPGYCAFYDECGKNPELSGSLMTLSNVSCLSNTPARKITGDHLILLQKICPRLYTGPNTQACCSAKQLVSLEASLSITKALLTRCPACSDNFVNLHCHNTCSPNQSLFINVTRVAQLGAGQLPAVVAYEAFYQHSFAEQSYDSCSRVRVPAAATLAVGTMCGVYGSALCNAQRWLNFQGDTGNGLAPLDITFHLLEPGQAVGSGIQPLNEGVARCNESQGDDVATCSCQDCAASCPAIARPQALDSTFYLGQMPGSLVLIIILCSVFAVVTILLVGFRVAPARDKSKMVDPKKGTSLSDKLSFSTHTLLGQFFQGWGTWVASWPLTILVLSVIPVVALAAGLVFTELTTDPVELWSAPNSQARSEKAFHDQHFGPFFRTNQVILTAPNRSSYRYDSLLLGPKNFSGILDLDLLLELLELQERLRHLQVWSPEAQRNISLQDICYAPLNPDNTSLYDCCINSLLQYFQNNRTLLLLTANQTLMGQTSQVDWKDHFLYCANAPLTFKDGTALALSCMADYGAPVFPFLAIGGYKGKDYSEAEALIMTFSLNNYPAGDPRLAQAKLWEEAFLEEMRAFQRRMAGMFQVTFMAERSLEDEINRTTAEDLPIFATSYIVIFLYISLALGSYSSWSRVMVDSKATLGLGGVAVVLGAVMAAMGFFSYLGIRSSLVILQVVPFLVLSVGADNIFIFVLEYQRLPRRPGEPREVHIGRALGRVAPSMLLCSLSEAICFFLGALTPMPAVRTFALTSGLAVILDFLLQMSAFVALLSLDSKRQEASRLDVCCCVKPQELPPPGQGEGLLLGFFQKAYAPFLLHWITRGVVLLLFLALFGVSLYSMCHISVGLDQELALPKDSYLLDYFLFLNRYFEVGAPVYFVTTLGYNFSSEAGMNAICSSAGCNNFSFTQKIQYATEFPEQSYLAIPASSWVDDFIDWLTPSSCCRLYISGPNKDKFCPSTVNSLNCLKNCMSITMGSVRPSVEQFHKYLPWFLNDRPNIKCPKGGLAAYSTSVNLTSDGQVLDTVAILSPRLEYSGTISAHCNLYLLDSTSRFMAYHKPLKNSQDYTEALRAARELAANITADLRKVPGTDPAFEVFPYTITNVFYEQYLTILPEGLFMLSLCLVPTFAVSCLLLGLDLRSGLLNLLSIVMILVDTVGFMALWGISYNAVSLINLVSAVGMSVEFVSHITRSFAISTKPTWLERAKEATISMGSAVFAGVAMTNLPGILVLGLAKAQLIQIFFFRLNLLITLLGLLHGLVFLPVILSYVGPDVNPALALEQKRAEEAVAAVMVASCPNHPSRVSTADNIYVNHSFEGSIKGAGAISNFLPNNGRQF
Description: as §1

[3] = target: T2, human ASBT (Homo sapiens, UniProt Q12908); assay: Uptake by Griptite cells overexpressing ASBT; assay type: in vitro ADME; details: Griptite cells transfected with human ASBT vs empty plasmid, 37 °C, 1 h
T2 construct: host or cells: Griptite cells (HEK-293-derived, own knowledge)
T2 sequence (Q12908 1-348): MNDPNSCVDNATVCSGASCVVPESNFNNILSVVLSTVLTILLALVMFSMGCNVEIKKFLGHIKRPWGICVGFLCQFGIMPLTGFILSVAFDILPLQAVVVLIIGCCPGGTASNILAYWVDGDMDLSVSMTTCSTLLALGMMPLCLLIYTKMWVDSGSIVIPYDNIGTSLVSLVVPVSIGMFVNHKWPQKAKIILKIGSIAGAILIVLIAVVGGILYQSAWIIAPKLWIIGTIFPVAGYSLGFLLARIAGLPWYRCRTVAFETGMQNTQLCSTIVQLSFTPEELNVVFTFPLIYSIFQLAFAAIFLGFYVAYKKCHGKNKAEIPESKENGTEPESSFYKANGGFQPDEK
Description: Griptite cells were cultured and transfected with 3 µg DNA (either ASBT in pCMV plasmid or empty pCMV control plasmid) similarly to HEK cells, as previously described. Transfection efficiency was verified by western blotting, as previously published. A pre-incubation of the cell monolayers with DMEM supplemented with either DMSO (control) or 100 µM simvastatin was performed during 30 min. Synthetic mixed micelles containing vitamin D forms were diluted in DMEM (1:5) to avoid cytotoxicity [23](data not shown). Apical uptake of vitamin D forms was determined after a 1 h-incubation with a solution of micellar vitamin D containing either DMSO or 100 µM simvastatin (final concentration of DMSO in both conditions: 0.01%). The % of vitamin D taken up was estimated as the quantity of vitamin D present in the harvested cells divided by the sum of the quantity of vitamin D remaining in the apical chamber and that present in the harvested cells.

[4] = target: T3, SR-BI (Homo sapiens, UniProt Q8WTV0); assay: Uptake by Caco-2 cells with SR-BI inhibition by BLT1; assay type: in vitro ADME; details: 10 µM BLT1 (SR-BI inhibitor), n = 3
T3 construct: endogenous in cells; host or cells: Caco-2 clone TC-7
T3 sequence (Q8WTV0 1-509 isoform Q8WTV0-2): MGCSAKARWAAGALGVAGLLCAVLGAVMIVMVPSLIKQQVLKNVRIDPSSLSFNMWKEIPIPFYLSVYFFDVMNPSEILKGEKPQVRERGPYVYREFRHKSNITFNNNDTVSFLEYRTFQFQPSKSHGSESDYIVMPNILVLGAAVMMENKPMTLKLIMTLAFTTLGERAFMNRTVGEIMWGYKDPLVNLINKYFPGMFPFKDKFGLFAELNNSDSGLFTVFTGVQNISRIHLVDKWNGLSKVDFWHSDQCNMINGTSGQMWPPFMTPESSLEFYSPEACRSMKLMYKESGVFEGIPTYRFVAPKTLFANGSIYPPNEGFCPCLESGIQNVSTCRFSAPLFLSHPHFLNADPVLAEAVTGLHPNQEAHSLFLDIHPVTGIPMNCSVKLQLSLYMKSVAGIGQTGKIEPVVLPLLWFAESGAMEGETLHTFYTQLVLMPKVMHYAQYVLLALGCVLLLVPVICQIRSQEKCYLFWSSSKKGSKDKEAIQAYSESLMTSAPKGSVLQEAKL
Description: as §1

[5] = set-up: method as in PubChem Website; details: ref PubChem Website; cited from earlier work
[6] = test system: ASBT; assay: Uptake by Caco-2 cells with ASBT inhibition by simvastatin; assay type: in vitro ADME, human; details: 100 µM simvastatin (ASBT inhibitor), n = 3
Description: as §1, with “Cells were either harvested (control) or they received apical medium containing vitamin D-free mixed micelles for 1 h.” left out

[7] = Incorporation of vitamin D forms in synthetic mixed micelles; assay type: physicochemical; details: for incorporation efficiency into synthetic mixed micelles: vitamin D form 0–20 µM, linear incorporation curves, n = 3
Description: Mixed micelles were formed as previously described. Briefly, monoolein (0.3 mM), oleic acid (0.5 mM), phosphatidylcholine (0.04 mM), lysophosphatidylcholine (0.16 mM), and cholesterol (0.1 mM) dissolved in trichloromethane/methanol (2:1, v/v) and vitamin D forms (concentration range: 0–20 µM) dissolved in ethanol were transferred to a glass tube, and the solvent mixture was carefully evaporated under nitrogen. The dried residue was dispersed in DMEM containing 5 mM sodium taurocholate and was incubated at 37 °C for 30 min. The solution was mixed by sonication in a bath sonicator (Branson 3510 MT, 40 kHz; Branson Ultrasonics, Danbury, CT, USA) for 30 min and then incubated at 37 °C for 1 h. It was then filtrated through cellulose ester membranes (0.22 µm) (Millipore S.A.S., Molsheim, France), and the resulting solution of vitamin D-rich mixed micelles was stored at −20 °C until cell culture experiment or vitamin extraction and HPLC analysis. Concentrations of the different forms in the micellar solutions were checked before each experiment.
as §2, §3

uptake rate by Caco-2 cells at high concentration [1]	uptake rate by Caco-2 cells at low concentration [1]	decrease of uptake in the presence of ezetimibe glucuronide [2]	decrease of uptake in the presence of BLT1 [4]	incorporation efficiency into synthetic mixed micelles [7]	fold improvement of solubilization into mixed micelles compared to 25-hydroxycholecalciferol ([7]; vs 25-hydroxycholecalciferol)	fold improvement of solubilization into mixed micelles compared to cholecalciferol ([7]; vs cholecalciferol)	Structure (SMILES)	effect of ASBT overexpression on uptake [3]	log P [5]	decrease of uptake in the presence of simvastatin [6]
25%	18%	but not	not significantly modified	62%	2.9 fold	1.6 fold	C=C1/C(=C\C=C2/CCC[C@]3(C)[C@@H]([C@H](C)CCCC(C)C)CC[C@@H]23)C[C@@H](O)C[C@@H]1O [1α(OH)D3, 1-α-hydroxycholecalciferol]	changed neither	6.8	~15%
34%	29%	but not	not significantly modified	21%	–	–	C=C1CC[C@H](O)C/C1=C/C=C1\CCC[C@]2(C)[C@@H]([C@H](C)CCCC(C)(C)O)CC[C@@H]12 [25(OH)D3, 25-hydroxycholecalciferol]	–	6.2	–

Structure (SMILES)	uptake rate by Caco-2 cells at high concentration [1]	uptake rate by Caco-2 cells at low concentration [1]	decrease of uptake in the presence of ezetimibe glucuronide [2]	decrease of uptake in the presence of BLT1 [4]	incorporation efficiency into synthetic mixed micelles [7]	fold improvement of solubilization into mixed micelles compared to 25-hydroxycholecalciferol ([7]; vs 25-hydroxycholecalciferol)	fold improvement of solubilization into mixed micelles compared to cholecalciferol ([7]; vs cholecalciferol)	effect of ASBT overexpression on uptake [3]	log P [5]	decrease of uptake in the presence of simvastatin [6]
C=C1CC[C@H](O)C/C1=C/C=C1\CCC[C@]2(C)[C@@H]([C@H](C)CCCC(C)C)CC[C@@H]12 [D3, cholecalciferol]	18%	10%	30%	31%	39%	–	–	changed neither	7.9	about 24%

From PMC5691768, “Comparison of the Micellar Incorporation and the Intestinal Cell Uptake of Cholecalciferol, 25-Hydroxycholecalciferol and 1-α-Hydroxycholecalciferol” (Nutrients, 2017)
